Measured values: US9504252B2, “Microbiocides and uses thereof” (Buckman Laboratories International, Inc., priority 2014, dated 2016)
“Also recorded” adds a separate entry of the source.

What was measured:
[1] = tested on: sulfate reducing bacteria (SRB); assay: kill study, API broth serial dilution (SRB); type: cell-based; settings: for API SERIES: SRB count, seven days, 30° C.
Description: (§1) A one gallon sample of cone water from a contaminated drilling fluid (run through a hydrocyclone) in the DJ (Denver-Julesburg Basin) formation was employed for these studies. The cone water pH was measured at 6.4 and the redox potential was at 34.6. The sample included anaerobic sulfate reducing, aerobic and anaerobic acid producing bacteria and general heterotrophic bacteria. Both organism types were present in this sample with the SRB+H2S at levels in excess of 10^12 bacteria per milliliter in the original sample.
(§2) In order to ensure that the active range was captured, the contaminated water was diluted with Butterfield phosphate buffer solution to a concentration of 0.1% of its original concentration. Serial dilutions were made using 1 cc sterile syringes to inoculate 9.0 mL anaerobic American Petroleum Institute (API) broth with an iron nail designed for sulfate reducing bacteria (SRB). In addition, Acid Producing B acteria (APB) and General Heterotrophic Bacteria (GHB) were tested using serial dilutions in 9 mL phenol red (PR) broth. The media salinity was matched to the substrate salinity of ≈0.5% that was measured by percent Total Dissolved Solids (TDS). Additionally, an untreated control was included. In all cases the concentration was determined on a weight/weight basis of parts per million (milligrams per kilogram). Each aliquot was continuously mixed (in a thermally controlled incubator) well after the addition of the biocide and maintained at 30° C. for the duration of study.
(§3) Untreated and treated aliquots were inspected after seven days checking to see if the bottles the API bottles turned black (indicating positive SRB growth) and to see if the PRD bottles turned yellow (indicating the presence of APB) and/or turbidity (indicating the presence of GHB). A color change at the highest dilution indicated the log quantity of organisms present.

[2] = tested on: Acid Producing Bacteria (APB) and General Heterotrophic Bacteria (GHB); assay: kill study, phenol red broth serial dilution (APB/GHB); type: cell-based; settings: for PRD SERIES: APB and GHB count, seven days, 30° C.
Description: as §1, §2, §3

## CNC(=S)[S-].[Na+] [SNMDTC, sodium-N-methyldithiocarbamate]
[1]; 1,000 ppm
  decrease in SRB concentration: did not appear to be any noticeable decrease
[1]; 1,000 ppm total biocide
  API SERIES: >10^4
[1]; 10,000 ppm total biocide
  API SERIES: >10^2
[1]; 10,000 ppm, over a period of eight days
  decrease in bacterial concentration of SRB: two
[2]; 1,000 ppm
  decrease in APB/GHB concentration: did not appear to be any noticeable decrease; also recorded: did not have any noticeable effect
[2]; 1,000 ppm total biocide
  PRD SERIES: ≧10^3
[2]; 10,000 ppm total biocide
  PRD SERIES: >10^2
